Values of other authors as cited in patent US20190114390A1, “DRUG REPURPOSING BASED ON DEEP EMBEDDINGS OF GENE EXPRESSION PROFILES” (BioAge Labs, Inc., priority 2017, published 2019).

Assays:
[1] = known property
imidazole I-2 receptors = details: known property

SMILES: CN(C)C(=N)N=C(N)N [Metformin, metformin]
- effect on glucose levels [1]: lower glucose levels
- effect upon imidazole I-2 receptors (imidazole I-2 receptors): direct inhibitory effect upon imidazole I-2 receptors

SMILES: NC(=O)NC1NC(=O)NC1=O (stereo not shown) [allantoin]
- effect on glucose levels [1]: lowers glucose levels
- effect upon imidazole I-2 receptors (imidazole I-2 receptors): direct inhibitory effect upon imidazole I-2 receptors
